Experimental data as given in patent publication US20260013501A1, “HERBICIDAL DERIVATIVES” (SYNGENTA CROP PROTECTION AG, priority 2022, published 2026).

Legend:
Assay type in all cases: in vivo
[1] = tested on: Ipomoea hederacea (IPOHE); test: Pre-emergence Test (Table B1), IPOHE; conditions: evaluated after 13 days
Zea mays (ZEAMX) [2] = test: Pre-emergence Test (Table B1), ZEAMX; conditions: evaluated after 13 days
[3] = tested on: Echinochloa crus-galli (ECHCG); test: Pre-emergence Test (Table B1), ECHCG; conditions: evaluated after 13 days
Zea mays (ZEAMX) [4] = test: Post-emergence Test (Table B2), ZEAMX; design: key: 5-point damage scale: 5=81-100%, 4=61-80%, 3=41-60%, 2=21-40%, 1=0-20%; conditions: evaluated after 13 days
Protocol: (§1) Seeds of a variety of test species are sown in standard soil in pots (Ipomoea hederacea (IPOHE), Zea mays (ZEAMX), Echinochloa crus-galli (ECHCG), Amaranthus palmeri (AMAPA), (Amaranthus retoflexus (AMARE), and (Setaria faberi (SETFA)). After 8 days cultivation under controlled conditions in a glasshouse (at 24° C./16° C., day/night; 14 hours light; 65% humidity), the plants are sprayed with an aqueous spray solution derived from the formulation of the technical active ingredient in acetone/water (50:50) solution containing 0.5% Tween 20 (polyoxyethelyene sorbitan monolaurate, CAS RN 9005-64-5). Rate of application is shown in g/ha in the tables below. The test plants are then grown in a glasshouse under controlled conditions in a glasshouse (at 24° C./16° C., day/night; 14 hours light; 65% humidity) and watered twice daily. After 13 days the test is evaluated for the percentage damage caused to the plant. The biological activities are shown in the following table on a five-point scale (5=81-100%; 4=61-80%; 3=41-60%; 2=21-40%; 1=0-20%; -=not tested).

[5] = tested on: Echinochloa crus-galli (ECHCG); test: Post-emergence Test (Table B2), ECHCG; design: key: 5-point damage scale: 5=81-100%, 4=61-80%, 3=41-60%, 2=21-40%, 1=0-20%; conditions: evaluated after 13 days
Protocol: as §1

[6] = tested on: Amaranthus palmeri (AMAPA); test: Pre-emergence Test (Table B1), AMAPA; conditions: evaluated after 13 days
[7] = tested on: Amaranthus retoflexus (AMARE); test: Pre-emergence Test (Table B1), AMARE; conditions: evaluated after 13 days
[8] = tested on: Amaranthus palmeri (AMAPA); test: Post-emergence Test (Table B2), AMAPA; design: key: five-point scale: 5=81-100%, 4=61-80%, 3=41-60%, 2=21-40%, 1=0-20% damage; conditions: rate 250 g/Ha, evaluated after 13 days
Protocol: as §1

CCn1c(Cc2ncc(SC)cn2)cc(=O)c(C(=O)O)c1-c1ccc(Cl)c(Cl)c1 [Compound 99, 2-(3,4-dichlorophenyl)-1-ethyl-6-[(5-methylsulfanylpyrimidin-2-yl)methyl]-4-oxo-pyridine-3-carboxylic acid]
0: Pre-emergence Test, percentage damage caused to the plant (five-point scale), IPOHE ([1]; Rate 250 g/Ha) | Pre-emergence Test, percentage damage caused to the plant (five-point scale), ZEAMX (Zea mays (ZEAMX) [2]; Rate 250 g/Ha) | Pre-emergence Test, percentage damage caused to the plant (five-point scale), ECHCG ([3]; Rate 250 g/Ha)

CCn1c(Cc2ccc(OC(F)(F)F)cc2)cc(=O)c(C(=O)O)c1-c1ccc(Cl)c(Cl)c1 [Compound 26, 2-(3,4-dichlorophenyl)-1-ethyl-4-oxo-6-[[4-(trifluoromethoxy)phe-nyl]methyl]pyridine-3-carboxylic acid]
0: percentage damage caused to the plant, ZEAMX (Zea mays (ZEAMX) [4]; rate 1000 g/Ha) | percentage damage caused to the plant, ECHCG ([5]; rate 1000 g/Ha)

CCn1c(Cc2ccc(S(C)(=O)=O)cc2)cc(=O)c(C(=O)O)c1-c1ccc(Cl)c(Cl)c1 [Compound 72, 2-(3,4-dichlorophenyl)-1-ethyl-6-[(4-methylsulfonylphenyl)methyl]-4-oxo-pyridine-3-carboxylic acid]
0: Pre-emergence Test, percentage damage caused to the plant (five-point scale), IPOHE ([1]; Rate 250 g/Ha) | Pre-emergence Test, percentage damage caused to the plant (five-point scale), ECHCG ([3]; Rate 250 g/Ha) | percentage damage caused to the plant, ZEAMX (Zea mays (ZEAMX) [4]; rate 250 g/Ha) | percentage damage caused to the plant, ECHCG ([5]; rate 250 g/Ha)

CCn1c(Cc2cc(OC)ccc2F)cc(=O)c(C(=O)O)c1-c1ccc(Cl)c(Cl)c1 [Compound 90, 2-(3,4-dichlorophenyl)-1-ethyl-6-[(2-fluoro-5-methoxy-phenyl)methyl]-4-oxo-pyridine-3-carboxylic acid]
0: Pre-emergence Test, percentage damage caused to the plant (five-point scale), ZEAMX (Zea mays (ZEAMX) [2]; Rate 1000 g/Ha) | Pre-emergence Test, percentage damage caused to the plant (five-point scale), AMAPA ([6]; Rate 1000 g/Ha) | Pre-emergence Test, percentage damage caused to the plant (five-point scale), AMARE ([7]; Rate 1000 g/Ha) | percentage damage caused to the plant, ZEAMX (Zea mays (ZEAMX) [4]; rate 1000 g/Ha) | percentage damage caused to the plant, ECHCG ([5]; rate 1000 g/Ha)

CCn1c(Cc2ccc(C(=O)OC)cn2)cc(=O)c(C(=O)O)c1-c1ccc(Cl)c(Cl)c1 [Compound 46, 2-(3,4-dichlorophenyl)-1-ethyl-6-[(5-methoxycarbonyl-2-pyridyl)methyl]-4-oxo-pyridine-3-carboxylic acid]
0: Pre-emergence Test, percentage damage caused to the plant (five-point scale), ZEAMX (Zea mays (ZEAMX) [2]; Rate 250 g/Ha) | percentage damage caused to the plant, ECHCG ([5]; rate 250 g/Ha)

CCn1c(Cc2cccc(C(C)=O)n2)cc(=O)c(C(=O)O)c1-c1ccc(Cl)c(Cl)c1 [Compound 116, 6-[(6-acetyl-2-pyridyl)methyl]-2-(3,4-dichlorophenyl)-1-ethyl-4-oxo-pyridine-3-carboxylic acid]
0: Pre-emergence Test, percentage damage caused to the plant (five-point scale), IPOHE ([1]; Rate 250 g/Ha) | percentage damage caused to the plant, AMAPA [8]

CCn1c(Cc2cncc(Cl)n2)cc(=O)c(C(=O)O)c1-c1ccc(Cl)c(Cl)c1 [Compound 43, 6-[(6-chloropyrazin-2-yl)methyl]-2-(3,4-dichlorophenyl)-1-ethyl-4-oxo-pyridine-3-carboxylic acid]
0: Pre-emergence Test, percentage damage caused to the plant (five-point scale), ZEAMX (Zea mays (ZEAMX) [2]; Rate 250 g/Ha) | Pre-emergence Test, percentage damage caused to the plant (five-point scale), AMAPA ([6]; Rate 250 g/Ha) | percentage damage caused to the plant, AMAPA [8]

CCn1c(Cc2cnc(Cl)cn2)cc(=O)c(C(=O)O)c1-c1ccc(Cl)c(Cl)c1 [Compound 143, 6-[(5-chloropyrazin-2-yl)methyl]-2-(3,4-dichlorophenyl)-1-ethyl-4-oxo-pyridine-3-carboxylic acid]
0: Pre-emergence Test, percentage damage caused to the plant (five-point scale), ZEAMX (Zea mays (ZEAMX) [2]; Rate 250 g/Ha) | Pre-emergence Test, percentage damage caused to the plant (five-point scale), ECHCG ([3]; Rate 250 g/Ha) | Pre-emergence Test, percentage damage caused to the plant (five-point scale), AMAPA ([6]; Rate 250 g/Ha) | percentage damage caused to the plant, ZEAMX (Zea mays (ZEAMX) [4]; rate 250 g/Ha)

CCn1c(Cc2cncc(F)c2)cc(=O)c(C(=O)O)c1-c1ccc(Cl)c(Cl)c1 [Compound 42, 2-(3,4-dichlorophenyl)-1-ethyl-6-[(5-fluoro-3-pyridyl)methyl]-4-oxo-pyridine-3-carboxylic acid]
0: Pre-emergence Test, percentage damage caused to the plant (five-point scale), ZEAMX (Zea mays (ZEAMX) [2]; Rate 250 g/Ha) | Pre-emergence Test, percentage damage caused to the plant (five-point scale), ECHCG ([3]; Rate 250 g/Ha) | Pre-emergence Test, percentage damage caused to the plant (five-point scale), AMAPA ([6]; Rate 250 g/Ha) | percentage damage caused to the plant, ZEAMX (Zea mays (ZEAMX) [4]; rate 250 g/Ha)

CCn1c(Cc2cnc(C3CC3)nc2)cc(=O)c(C(=O)O)c1-c1ccc(Cl)c(Cl)c1 [Compound 151, 6-[(2-cyclopropylpyrimidin-5-yl)methyl]-2-(3,4-dichlorophenyl)-1-ethyl-4-oxo-pyridine-3-carboxylic acid]
0: Pre-emergence Test, percentage damage caused to the plant (five-point scale), IPOHE ([1]; Rate 250 g/Ha) | Pre-emergence Test, percentage damage caused to the plant (five-point scale), ZEAMX (Zea mays (ZEAMX) [2]; Rate 250 g/Ha) | Pre-emergence Test, percentage damage caused to the plant (five-point scale), ECHCG ([3]; Rate 250 g/Ha) | percentage damage caused to the plant, ZEAMX (Zea mays (ZEAMX) [4]; rate 250 g/Ha) | percentage damage caused to the plant, AMAPA [8]

CCn1c(Cc2ccc(OC)nc2)cc(=O)c(C(=O)O)c1-c1ccc(Cl)c(Cl)c1 [Compound 40, 2-(3,4-dichlorophenyl)-1-ethyl-6-[(6-methoxy-3-pyridyl)methyl]-4-oxo-pyridine-3-carboxylic acid]
0: Pre-emergence Test, percentage damage caused to the plant (five-point scale), IPOHE ([1]; Rate 250 g/Ha) | Pre-emergence Test, percentage damage caused to the plant (five-point scale), ZEAMX (Zea mays (ZEAMX) [2]; Rate 250 g/Ha) | Pre-emergence Test, percentage damage caused to the plant (five-point scale), ECHCG ([3]; Rate 250 g/Ha) | percentage damage caused to the plant, ECHCG ([5]; rate 250 g/Ha)

CCn1c(Cc2nccc(OC)n2)cc(=O)c(C(=O)O)c1-c1ccc(Cl)c(Cl)c1 [Compound 20, 2-(3,4-dichlorophenyl)-1-ethyl-6-[(4-methoxypyrimidin-2-yl)methyl]-4-oxo-pyridine-3-carboxylic acid]
0: Pre-emergence Test, percentage damage caused to the plant (five-point scale), ZEAMX (Zea mays (ZEAMX) [2]; Rate 250 g/Ha) | Pre-emergence Test, percentage damage caused to the plant (five-point scale), ECHCG ([3]; Rate 250 g/Ha) | Pre-emergence Test, percentage damage caused to the plant (five-point scale), AMAPA ([6]; Rate 250 g/Ha) | Pre-emergence Test, percentage damage caused to the plant (five-point scale), AMARE ([7]; Rate 250 g/Ha)

CCn1c(Cc2cc(OC)ncn2)cc(=O)c(C(=O)O)c1-c1ccc(Cl)c(Cl)c1 [Compound 100, 2-(3,4-dichlorophenyl)-1-ethyl-6-[(6-methoxypyrimidin-4-yl)methyl]-4-oxo-pyridine-3-carboxylic acid]
0: Pre-emergence Test, percentage damage caused to the plant (five-point scale), ZEAMX (Zea mays (ZEAMX) [2]; Rate 250 g/Ha) | Pre-emergence Test, percentage damage caused to the plant (five-point scale), ECHCG ([3]; Rate 250 g/Ha) | Pre-emergence Test, percentage damage caused to the plant (five-point scale), AMARE ([7]; Rate 250 g/Ha)

CCn1c(Cc2ccc(C(F)(F)F)cc2)cc(=O)c(C(=O)O)c1-c1ccc(Cl)c(Cl)c1 [Compound 6, 2-(3,4-dichlorophenyl)-1-ethyl-4-oxo-6-[[4-(trifluoromethyl)phenyl]methyl]pyridine-3-carboxylic acid]
0: Pre-emergence Test, percentage damage caused to the plant (five-point scale), IPOHE ([1]; Rate 1000 g/Ha) | Pre-emergence Test, percentage damage caused to the plant (five-point scale), ZEAMX (Zea mays (ZEAMX) [2]; Rate 1000 g/Ha) | Pre-emergence Test, percentage damage caused to the plant (five-point scale), ECHCG ([3]; Rate 1000 g/Ha)

CCn1c(Cc2ncccn2)cc(=O)c(C(=O)O)c1-c1ccc(Cl)c(Cl)c1 [Compound 22, 2-(3,4-dichlorophenyl)-1-ethyl-4-oxo-6-(pyrimidin-2-ylmethyl)pyridine-3-carboxylic acid]
0: Pre-emergence Test, percentage damage caused to the plant (five-point scale), ZEAMX (Zea mays (ZEAMX) [2]; Rate 250 g/Ha) | Pre-emergence Test, percentage damage caused to the plant (five-point scale), ECHCG ([3]; Rate 250 g/Ha) | Pre-emergence Test, percentage damage caused to the plant (five-point scale), AMAPA ([6]; Rate 250 g/Ha) | Pre-emergence Test, percentage damage caused to the plant (five-point scale), AMARE ([7]; Rate 250 g/Ha)

CCn1c(Cc2cc(=O)[nH]cn2)cc(=O)c(C(=O)O)c1-c1ccc(Cl)c(Cl)c1 [Compound 45, 2-(3,4-dichlorophenyl)-1-ethyl-4-oxo-6-[(6-oxo-1H-pyrimidin-4-yl)methyl]pyridine-3-carboxylic acid]
0: Pre-emergence Test, percentage damage caused to the plant (five-point scale), ZEAMX (Zea mays (ZEAMX) [2]; Rate 250 g/Ha) | Pre-emergence Test, percentage damage caused to the plant (five-point scale), ECHCG ([3]; Rate 250 g/Ha) | Pre-emergence Test, percentage damage caused to the plant (five-point scale), AMAPA ([6]; Rate 250 g/Ha) | Pre-emergence Test, percentage damage caused to the plant (five-point scale), AMARE ([7]; Rate 250 g/Ha) | percentage damage caused to the plant, ECHCG ([5]; rate 250 g/Ha)

CCn1c(Cc2ccc(C#N)c(F)n2)cc(=O)c(C(=O)O)c1-c1ccc(Cl)c(Cl)c1 [Compound 112, 6-[(5-cyano-6-fluoro-2-pyridyl)methyl]-2-(3,4-dichlorophenyl)-1-ethyl-4-oxo-pyridine-3-carboxylic acid]
0: Pre-emergence Test, percentage damage caused to the plant (five-point scale), IPOHE ([1]; Rate 62.5 g/Ha) | Pre-emergence Test, percentage damage caused to the plant (five-point scale), ZEAMX (Zea mays (ZEAMX) [2]; Rate 62.5 g/Ha) | Pre-emergence Test, percentage damage caused to the plant (five-point scale), ECHCG ([3]; Rate 62.5 g/Ha) | Pre-emergence Test, percentage damage caused to the plant (five-point scale), AMAPA ([6]; Rate 62.5 g/Ha) | Pre-emergence Test, percentage damage caused to the plant (five-point scale), AMARE ([7]; Rate 62.5 g/Ha)
